According to PMC10791743, “Selective CK1α degraders exert antiproliferative activity against a broad range of human cancer cell lines” (Nature Communications, 2024):
Entries after “also recorded” stand apart in the source; their conditions may differ. Where two headings read alike, the source gives them in different places.

Test system: 115 human cancer cell lines
Assay: Oncolines panel cell viability assay (ATPlite, 72 h)
Assay type: cell-based
Conditions: for IC50: Homo sapiens
Description: To evaluate the compound’s effect and potential therapeutic application across a diverse range of human cancers, we profiled SJ3149 in Oncolines® panel consisting of 115 human cancer cell lines, of which 86 were solid tumor and 29 hematologic cell lines, including MOLM-13. Effect on cell viability was monitored using ATPLite™ (Perkin Elmer), which measures intracellular ATP content as an indirect readout of cell number, like CellTiter Glo.
Cell lines were purchased from the American Type Culture Collection (ATCC) (Manassas, VA, USA) or the German Collection of Microorganisms and Cell Cultures (DSMZ) (Braunschweig, Germany). All experiments were carried out within ten passages of the original vials. Authenticity of the cell lines was confirmed by short tandem repeat analysis at the respective provider.
Cell viability assays were performed as previously described. In brief, cells were seeded in a 384-well plate at an optimized density. The starting cell number was determined after 24 h incubation by adding ATPlite 1Step (Perkin Elmer, Groningen, the Netherlands) to each well and recording luminescence on an Envision multimode reader (Perkin Elmer, Waltham, MA). After the addition of a duplicate 9-point dilution series of SJ3149, cells were incubated for another 72 h, followed by cell counting using ATPlite 1Step. The dilution series ranged from 3.2 to 31,600 nM or was diluted 100-fold for the most sensitive cell lines to ideally capture the complete dose–response curve. Percentage viability was determined at each compound concentration by relating the observed signal to a vehicle-treated control, that is, medium containing 0.4% (v/v) DMSO. Compound IC50 values were calculated by fitting a 4-parameter logistic curve to the percentage viability values using IDBS XLfit5 (IDBS, Guildford, UK). The IC50 was limited to the maximum tested compound concentration when the IC50 exceeded the maximum tested concentration.

O=C1CCC(N2Cc3cc(Nc4noc5ccccc45)ccc3C2=O)C(=O)N1 (stereo not drawn) [SJ3149]
Inhibition of viability in Oncolines panel cell lines (ATPlite, 72 h): potently inhibited the viability of AML cell lines; also recorded: potently inhibited the viability of multiple cell lines derived from solid tumors; also recorded: low nanomolar or even sub-nanomolar potency
IC50 (769-P, cell line 769-P, Renal cell carcinoma, TP53 Wild-type, read-out: IC50): 101 nM
IC50 (A204, cell line A-204, Embryonal rhabdomyosarcoma, TP53 Wild-type, read-out: IC50): 16 nM
IC50 (A498, cell line A-498, Renal cell carcinoma, TP53 Wild-type, read-out: IC50): 5660 nM
IC50 (A549, cell line A-549, Lung adenocarcinoma, TP53 Wild-type, read-out: IC50): 38 nM
IC50 (A-375, cell line A375, Amelanotic melanoma, TP53 Wild-type, read-out: IC50): 33 nM
IC50 (ACHN, cell line ACHN, Papillary renal cell carcinoma, TP53 Wild-type, read-out: IC50): 187 nM
IC50 (AU565, cell line AU-565, Breast adenocarcinoma, TP53 Mutant, read-out: IC50): 19200 nM
IC50 (B-cell, HT, Diffuse large B-cell lymphoma, read-out: IC50): > 31600 nM
IC50 (B-cell, RL, Diffuse large B-cell lymphoma, TP53 Mutant, read-out: IC50): 27200 nM
IC50 (B-cell, cell line DB, Diffuse large B-cell lymphoma, TP53 Mutant, read-out: IC50): > 31600 nM
IC50 (BT-20, cell line BT-20, Invasive ductal carcinoma, TP53 Mutant, read-out: IC50): 30 nM
IC50 (BT-549, cell line BT-549, Invasive ductal carcinoma, TP53 Mutant, read-out: IC50): 12 nM
IC50 (CCRF-CEM, cell line CCRF-CEM, Childhood T acute lymphoblastic leukemia, TP53 Mutant, read-out: IC50): 24100 nM
IC50 (CCRF-HSB-2, CCRF-HSB-2 cells, T-ALL, read-out: IC50): 16 nM
IC50 (CCRF-HSB-2, cell line CCRF-HSB-2, Childhood T acute lymphoblastic leukemia, TP53 Wild-type, read-out: IC50): 16 nM
IC50 (CTV-1, cell line CTV-1, Adult T acute lymphoblastic leukemia, TP53 Wild-type, read-out: IC50): 212 nM
IC50 (DU-4475, cell line DU4475, Breast carcinoma, TP53 Wild-type, read-out: IC50): 16 nM
IC50 (HuTu80, HuTu 80, Duodenal adenocarcinoma, read-out: IC50): 4.6 nM
IC50 (J82, Bladder carcinoma, read-out: IC50): > 31600 nM
IC50 (JAR, Gestational choriocarcinoma, read-out: IC50): 69 nM
IC50 (JM-1, B acute lymphoblastic leukemia, read-out: IC50): 39 nM
IC50 (Jurkat E6.1, Jurkat E6.1, Childhood T acute lymphoblastic leukemia, read-out: IC50): 21200 nM
IC50 (KATO III, Signet ring cell gastric adenocarcinoma, read-out: IC50): 31400 nM
IC50 (KG-1, Adult acute myeloid leukemia, read-out: IC50): 3480 nM
IC50 (KLE, Endometrial adenocarcinoma, read-out: IC50): 28 nM
IC50 (KU812, KU812, Chronic myelogenous leukemia, read-out: IC50): 0.75 nM
IC50 (LNCaP, LNCaP FGC, Prostate carcinoma, read-out: IC50): 91 nM
IC50 (LS174T, LS 174T, Colon adenocarcinoma, read-out: IC50): 16 nM
IC50 (LoVo, Colon adenocarcinoma, read-out: IC50): 0.28 nM
IC50 (MCF7, MCF7, Invasive ductal carcinoma, read-out: IC50): 18 nM
IC50 (MOLM-13, MOLM-13, Adult acute myeloid leukemia, read-out: IC50): 4.2 nM
IC50 (MOLM-13, MOLM-13 cells, AML, read-out: IC50): 4.2 nM
IC50 (MOLT-4, MOLT-4, Adult T acute lymphoblastic leukemia, read-out: IC50): 35 nM
IC50 (NB4, Acute promyelocytic leukemia with PML-RARA, read-out: IC50): > 31600 nM
IC50 (NCCIT, Testicular embryonal carcinoma, read-out: IC50): 4.2 nM
IC50 (NOMO-1, NOMO-1, Adult acute monocytic leukemia, read-out: IC50): 53 nM
IC50 (PA-1, Ovarian mixed germ cell tumor, TP53 Wild-type, read-out: IC50): 2.8 nM
IC50 (PC-3, Prostate carcinoma, TP53 Mutant, read-out: IC50): > 31600 nM
IC50 (RD, Embryonal rhabdomyosarcoma, TP53 Mutant, read-out: IC50): 104 nM
IC50 (RKO, Colon carcinoma, TP53 Wild-type, read-out: IC50): 26800 nM
IC50 (RL95-2, RL95-2, Endometrial adenosquamous carcinoma, TP53 Mutant, read-out: IC50): 58 nM
IC50 (RPMI 8402, RPMI-8402, Childhood T acute lymphoblastic leukemia, TP53 Wild-type, read-out: IC50): 24200 nM
IC50 (RS4-11, RS4-11, Adult B acute lymphoblastic leukemia, TP53 Wild-type, read-out: IC50): 2.1 nM
IC50 (RT4, Bladder carcinoma, TP53 Wild-type, read-out: IC50): 1240 nM
IC50 (SEM, Childhood B acute lymphoblastic leukemia, TP53 Mutant, read-out: IC50): 134 nM
IC50 (SET-2, SET-2, Adult acute megakaryoblastic leukemia, TP53 Mutant, read-out: IC50): 32 nM
IC50 (SJCRH30, Alveolar rhabdomyosarcoma, TP53 Mutant, read-out: IC50): > 31600 nM
IC50 (SK-N-FI, Neuroblastoma, TP53 Mutant, read-out: IC50): 36 nM
IC50 (SR, Anaplastic large cell lymphoma, TP53 Mutant, read-out: IC50): 58 nM
IC50 (SR, SR cells, ALCL, read-out: IC50): 58 nM
IC50 (SU-DHL-1, SU-DHL-1, Anaplastic large cell lymphoma, TP53 Mutant, read-out: IC50): 12900 nM
IC50 (SU-DHL-6, SU-DHL-6, Diffuse large B-cell lymphoma, TP53 Mutant, read-out: IC50): 79 nM
IC50 (SW48, SW48, Colon adenocarcinoma, TP53 Wild-type, read-out: IC50): 19 nM
IC50 (SW900, SW900, Squamous cell lung carcinoma, TP53 Mutant, read-out: IC50): 419 nM
IC50 (SW982, SW982, Biphasic synovial sarcoma, TP53 Wild-type, read-out: IC50): 11 nM
IC50 (T24, Bladder carcinoma, TP53 Mutant, read-out: IC50): > 31600 nM
IC50 (cell line 5637, Bladder carcinoma, TP53 Mutant, read-out: IC50): 27800 nM
IC50 (cell line A388, Squamous cell carcinoma, TP53 Mutant, read-out: IC50): > 31600 nM
IC50 (cell line AP-1060, Acute promyelocytic leukemia with PML-RARA, TP53 Unknown, read-out: IC50): 1.3 nM
IC50 (cell line ES-2, Ovarian clear cell adenocarcinoma, TP53 Mutant, read-out: IC50): > 31600 nM
IC50 (cell line TT (Hereditary thyroid gland medullary carcinoma), TP53 Wild-type, read-out: IC50): 2.2 nM
IC50 (multiple cell lines from diverse tumor tissue origins, read-out: IC50 in insensitive cell lines): > 31600 nM
